Laboratory results from patent US20250222045A1, “BIFIDOBACTERIUM LONGUM SUBSP. INFANTIS, MICROBIAL AGENT AND USE THEREOF” (GUANGZHOU JIYAN COSMETICS TECHNOLOGY CO., LTD., priority 2024, published 2025).

How the values were obtained:
p16 gene = assay: UVA-irradiated fibroblasts, special dosing: p16 PCR; format: cell-based; conditions: 10 mg/mL
Method: (§1) Cell inoculation: After resuscitation of cells, when a plating rate reached about 60%, the cells were inoculated in 6-well plates, and incubated overnight in the CO2 incubator (37° C., 5% CO2).
(§2) Dosing: When the plating rate of the cells in the 6-well plates reached about 50%˜60%, UVA irradiation of 30 J/cm^2 was performed on groups with UVA irradiation, and after the irradiation was finished, dosing was performed for the groups respectively, with each group in triplicate. […]
(§3) Detection of gene expression: After the incubation was finished, PBS cleaning was performed twice with 1 mL/well, each well was added with 1 mL of RNAiso Plus, to pipet and lyse the cells, after which samples were collected. RNA was extracted and subjected to reverse transcription to cDNA to undergo fluorescence quantitative PCR detection, and result was calculated by the […] method.
(§4) Statistical analysis of results: GraphPad Prism Program software was applied for plotting, and results were expressed as Mean±SD. Comparison between the groups was statistically analyzed using t-test. […]

MMP-1 = assay: UVA-irradiated fibroblasts, special dosing (UVA continuous irradiation): MMP1 ELISA; format: cell-based; conditions: Filtrate 1%, Lysate 0.5%, Filtrate + lysate 0.3125%, Pro-xylane 10 mg/mL, Edelweiss 0.625%
Method: as §1
Dosing: When the plating rate of the cells in the 6-well plates reached about 50%˜60%, UVA irradiation of 30 J/cm^2 was performed on groups with UVA irradiation, and after the irradiation was finished, dosing was performed for the groups respectively, with each group in triplicate. The blank control group and the negative control group were added with 2 mL of the culture solution per well, the positive control group was added with 2 mL of the TGF-β1-containing culture solution per well, and the sample group was added with 2 mL of the test sample-containing culture solution at a corresponding concentration per well. After the dosing was completed, the 6-well plates were cultured in the CO2 incubator (37° C., 5% CO2) […] for 24 h. The above operations were repeated for 3 times. […]
as §4

NF-κB gene = assay: UVA-irradiated fibroblasts, special dosing: NF-κB PCR; format: cell-based; conditions: Filtrate 0.1%, Lysate 0.5%, Filtrate + lysate 0.3125%, Pro-xylane 10 mg/mL
Method: as §1, §2, §3, §4

p21 gene = assay: UVA-irradiated fibroblasts, special dosing: p21 PCR; format: cell-based; conditions: 10 mg/mL
Method: as §1, §2, §3, §4

IL-6 = assay: Macrophage-based inflammatory factor test (LPS), IL-6 ELISA; format: cell-based; conditions: macrophages, dosed 2 h, then LPS 22 h, BC 0.50, NC 2224.08, dexamethasone 0.01%, Filtrate 0.5%, CLR bifida ferment lysate 1%
Method: (§5) <1> Formulation of working solution of positive control group (dexamethason): 2 μL of 10% mother liquor was sucked and dissolved in 2 mL of the culture solution to formulate 0.01% dexamethasone.
(§6) <2> Formulation of 1 μg/mL LPS-containing working solution: 2 mg/mL LPS stock solution was diluted to 1 μg/mL with the test-substance working solution remaining, negative control working solution and positive control working solution, respectively, after the dosing.
(§7) <1> Cell inoculation: the cells were inoculated in 6-well plates at an inoculation density of 2.2×10^5 per well, 2 mL of a cell suspension was added to each well, the inoculated cell culture plates continued to be cultured in the incubator for 24 h (5% CO2, 37° C.).
(§8) <2> Original cell culture solution in the wells was sucked out and discarded. The sample group was added with 1.8 mL of the test substance-containing culture solution at a corresponding concentration per well; the negative control group was added with 1.8 mL of a solvent control culture solution per well; the positive control group was added with 1.8 mL of a positive control culture solution per well; and the blank control group was added with 1.8 mL of a normal culture solution per well.
(§9) <3> After the dosing was completed, the 6-well plates were cultured in a cell incubator (5% CO2, 37° C.) for 2 h. […]

IL-1β = assay: Macrophage-based inflammatory factor test (LPS), IL-1β ELISA; format: cell-based; conditions: macrophages, dosed 2 h, then LPS 22 h, BC 2.83, NC 76.40, dexamethasone 0.01%, Filtrate 0.5%, CLR bifida ferment lysate 1%
Method: as §5, §6, §7, §8, §9

PGE2 = assay: Keratinocyte-based inflammatory factor test (UVB), PGE2 ELISA; format: cell-based; conditions: keratinocytes, dosed 24 h, UVB 300 mJ/cm^2, 24 h, BC 165.31, NC 492.42, dexamethasone 0.01%, Filtrate 0.3125%, Lysate 1%, Filtrate + lysate 0.0781%, Centella asiatica 0.625 mg/mL
Method: (§10) Cell inoculation: After resuscitation of cells, when a plating rate reached about 60%, the cells were inoculated in 6-well plates, and incubated overnight in a CO2 incubator (37° C., 5% CO2).
Dosing: According to test groups in TABLE 19, when the plating rate of the cells in the 6-well plates reached about 30%˜50%, dosing was performed for the groups respectively, with each group in triplicate. The blank control group and the negative control group were added with 2 mL of a culture solution per well, the positive control group was added with 2 mL of a dexamethasone-containing culture solution per well, and the sample group was added with 2 mL of a test sample-containing culture solution at corresponding concentration per well. After the dosing was completed, the 6-well plates were cultured in the CO2 incubator (37° C., 5% CO2) for 24 h.
UVB irradiation: after the cells are cleaned in PBS, according to the test groups, remaining groups other than the blank control group were all subjected to UVB irradiation, with an irradiation dosage of 300 mJ/cm^2. […]
(§11) Statistical analysis of results: GraphPad Prism was applied for plotting, and results were expressed as Mean±SD. Comparison between the groups was statistically analyzed using t-test. […]

Claudin-1 gene = assay: Keratinocyte gene expression PCR: Claudin-1; format: cell-based, human; conditions: keratinocytes (HaCaT), 24 h, 2^−ΔΔCT, BC=1.00; PC VE 0.05%, Filtrate 0.3125%, Lysate 0.5%, Filtrate + lysate 0.0781%, Madecassoside 0.625 mg/mL, CLR lactic acid bacteria 0.5%
Method: Cell inoculation: After resuscitation of the cells, when the plating rate reached about 60%, the cells were inoculated in the 6-well plates, and incubated overnight in the CO2 incubator (37° C., 5% CO2).
Dosing: According to test groups in TABLE 11 to TABLE 17, when the plating rate of the cells in the 6-well plates reached about 40%˜60%, dosing was performed for the groups respectively, with each group in triplicate. The blank control group was added with 2 mL of the culture solution per well, the positive control group was added with 2 mL of a VE-containing culture solution per well, and the sample group was added with 2 mL of the test sample-containing culture solution at a corresponding concentration per well. After the dosing was completed, the 6-well plates were cultured in the CO2 incubator (37° C., 5% CO2) for 24 h. […]
Detection of gene expression: RNA was extracted and subjected to reverse transcription to cDNA to undergo fluorescence quantitative PCR detection, and result was calculated by a 2^−ΔΔCT method.
as §11

Keratinocyte = assay: Cell scratch test, keratinocyte cell mobility; format: cell-based; conditions: Filtrate 0.3125%, Lysate 0.5%, Filtrate + lysate 0.0781%, Madecassoside 0.625 mg/mL, B5 1.25 mg/mL
Source text: Cell migration capability is an important capability of repairing after tissue damage. After the tissue damage, the body will initiate repair of a damaged part, including enhancement of longitudinal cell proliferation capability and lateral crawling and migration of cells in surrounding parts of the damage to the damaged part. Cells cover the damaged part by crawling and migration.
as §10
Dosing: According to test groups in TABLE 9, when the plating rate of the cells in the 6-well plates reached about 70%˜80%, dosing was performed for the groups respectively, with each group in triplicate. The blank control group was added with 2 mL of a culture solution per well, the positive control group was added with 2 mL of an EGF-containing culture solution per well, and the sample group was added with 2 mL of a test sample-containing culture solution at corresponding concentration per well. After the dosing was completed, the 6-well plates continued to be cultured in the CO2 incubator (37° C., 5% CO2) for 24 h. […]
Statistical analysis of results: GraphPad Prism was applied for plotting, and results were expressed as Mean±sD. Comparison between the groups was statistically analyzed using t-test. […]

[1] = system: 3D epidermal skin model (EpiKutis®); assay: SLS-stimulated 3D epidermal skin model (EpiKutis), tissue morphology H&E; format: cell-based; conditions: 0.1% SLS 30 min, then 24 h, filtrate 5%, lysate 5%, combination 5%, madecassoside 0.625 mg/mL, PC WY14643, FIG. 19
Source text: Tissue morphology: Tissue morphology is microscopic physiological structure analysis of tissues after HE staining. Through the tissue morphology of the model, changes in the skin barrier under different treatment conditions can be seen, for example, after SLS damage, the skin barrier becomes loose, thickness of a living cell layer decreases, and such damage can be ameliorated after treatment with active substances.
1) Formulation of 0.1% SLS working solution: 0.006 g of SLS was weighed and dissolved in 6 mL of a PBS solution, filtered by 0.22 μm, and formulated into the 0.1% SLS working solution for later use.
2) Formulation of working solution of positive control group (50 μM WY14643): 10 μL of 30 mM WY14643 mother liquor was sucked and dissolved in 6 mL of the culture solution to be formulated into 50 μM WY14643. […]
The models for detection of tissue morphology were fixed using 4% paraformaldehyde. After 24 h of fixation, H&E staining detection was performed, photographs were taken under a microscope and observed, and pictures were collected and analyzed.
as §11

`CC(O)C[C@@H]1OC[C@@H](O)[C@H](O)[C@H]1O` (some centres unmarked) [Pro-xylane] was tested, and the “p16 Down-regulation Rate (vs NC)” value (p16 gene) was 35.37%, the “p16 gene expression, Mean” value (p16 gene) was 1.06 and the “MMP1 Down-regulation Rate (vs NC)” value (MMP-1) was 17.94%. For the same molecule, the “MMP1 Mean Concentration” value (MMP-1; fibroblasts, UVA 30 J/cm^2 then dosing 24 h, repeated 3 times, ELISA, BC 359379.29, NC 1075513.35, PC TGFβ1 100 ng/mL) was 882584.62 pg/mL, the “NF-κB gene expression, Inhibition Rate (vs NC)” value (NF-κB gene) was 65.13% and the “NF-κB gene expression, Mean” value (NF-κB gene; fibroblasts, UVA 30 J/cm^2 then dosing 24 h, repeated 3 times, BC 1.00, NC 1.52, PC TGFβ1 100 ng/mL) was 0.53. For the same molecule, the “p21 gene expression, Mean” value (p21 gene) was 1.88.

`C[C@@H]1C[C@H]2[C@@H]3CCC4=CC(=O)C=C[C@]4(C)[C@@]3(F)[C@@H](O)C[C@]2(C)[C@@]1(O)C(=O)CO` [dexamethasone] was tested, and the “IL-6 Mean Concentration” value (IL-6) was 193.04 pg/mL, the “IL-1β Mean Concentration” value (IL-1β) was 8.51 pg/mL and the “PGE2 Mean Concentration” value (PGE2) was 159.23 pg/mL.

Madecassoside was tested, and the “Claudin-1 gene expression, Mean” value (Claudin-1 gene) was 0.96, the “Relative Mobility Mean” value (Keratinocyte; keratinocytes, dosed 24 h, 24 h after scratching, BC=1.00, PC EGF 1 ng/mL) was 1.02 and the “Relative mobility, Increase Rate” value (Keratinocyte; vs BC) was 2.00%. The “Tissue morphology (H&E) compared with the NC group” value [1] was “the phenomenon of living cell damage is obviously ameliorated”.
